≈ marks a conversion by molar mass, not a printed value.
What was measured:
[1] = molecular target: Cyclin-dependent kinase 1/cyclin B1 (Homo sapiens, UniProt P06493); assay: Inhibition of N-terminal GST-tagged full length human CDK1 (1 to 297 residues)/human Cyclin B1 (1 to 433 residues) expressed in baculovirus infected Sf21 cells incubated for 60 mins in presence of ATP by HTRF assay
[2] = molecular target: Cyclin-dependent kinase 2/cyclin E1 (Homo sapiens, UniProt P24941); assay: Inhibition of N-terminal GST-tagged full-length human CDK2(1 to 298 residues) /FLAG-tagged human Cyclin E1 (1 to 410 residues) expressed in baculovirus-infected Sf21 cells incubated for 60 mins in presence of ATP by HTRF assay
CDK6/cyclin D3 = CDK6/cyclin D3 (Homo sapiens, UniProt Q00534); assay: Inhibition of N-terminal GST-tagged human CDK6 (1 to 326 residues)/N-terminal 6-His fused human Cyclin D3 (1 to 292 residues) expressed in Sf9 insect cells incubated for 60 mins by HTRF assay
[3] = molecular target: Cyclin-dependent kinase 4/cyclin D1 (Homo sapiens, UniProt P11802); assay: Inhibition of N-terminal GST-tagged human CDK4 (4 to 303 residues)/N-terminal GST-tagged human Cyclin D1 (4 to 295 residues) expressed in Sf9 insect cells incubated for 60 mins in presence of ATP by HTRF assay
[4] = Solubility of compound in SGF by HPLC analysis
[5] = molecular target: Cyclin-dependent kinase 2 (Homo sapiens, UniProt P24941); assay: Inhibition of CDK2 in human whole blood spiked with CCNE1-amplified human COV318 cells assessed as reduction in retinoblastoma protein phosphorylation at S780 residue incubated overnight by HTRF microplate reader; assay type: cell-based
[6] = Intrinsic clearance in human liver microsomes at 1 uM measured upto 30 mins by LC/MS analysis; assay type: ADME, Microsome; settings: read-out: CLH (converted)
Homo sapiens = species: Homo sapiens; assay: Selectivity index, ratio of IC50 for inhibition of N-terminal GST-tagged full length human CDK1 (1 to 297 residues)/human Cyclin B1 (1 to 433 residues) expressed in baculovirus infected Sf21 cells to IC50 for inhibition of N-terminal GST-tagged full-length human CDK2(1 to 298 residues) /FLAG-tagged human Cyclin E1 (1 to 410 residues) expressed in baculovirus-infected Sf21 cells
[7] = molecular target: Tyrosine-protein kinase JAK2 (Homo sapiens, UniProt O60674); assay: Inhibition of JAK2 (unknown origin) incubated for 90 mins in presence of ATP by fluorescence microplate reader
[8] = Protein binding in human plasma assessed as free fraction incubated for 2 hrs by LC-MS/MS analysis; assay type: ADME, cell-free
[9] = Apparent permeability from apical to basolateral side in human Caco-2 cells at 50 uM incubated for 120 mins by LCMS analysis
[10] = Volume of distribution at steady state in Sprague-Dawley rat at 0.5 mg/kg, iv administered as cassette dose and measured upto 24 hrs by LC-MS/MS analysis; assay type: ADME, organism-based; settings: in vivo, read-out: Vdss
[11] = Hepatic blood flow in Sprague-Dawley rat at 0.5 mg/kg, iv administered as cassette dose and measured upto 24 hrs by LC-MS/MS analysis; assay type: ADME, organism-based; settings: in vivo
[12] = AUC in Sprague-Dawley rat at 3 mg/kg, po administered as cassette dose and measured upto 24 hrs by LC-MS/MS analysis; assay type: ADME, organism-based; settings: in vivo
[13] = Half-life in Sprague-Dawley rat at 0.5 mg/kg, iv administered as cassette dose and measured upto 24 hrs by LC-MS/MS analysis; assay type: ADME, organism-based; settings: in vivo
[14] = AUC in cynomolgus monkey at 1.5 mg/kg, po administered as cassette dose and measured upto 24 hrs by LC-MS/MS analysis; assay type: ADME, organism-based, Macaca fascicularis; settings: in vivo
[15] = Hepatic blood flow in cynomolgus monkey at 0.5 mg/kg, iv administered as cassette dose and measured upto 24 hrs by LC-MS/MS analysis; assay type: ADME, organism-based, Macaca fascicularis; settings: in vivo
[16] = Volume of distribution at steady state in cynomolgus monkey at 0.5 mg/kg, iv administered as cassette dose and measured upto 24 hrs by LC-MS/MS analysis; assay type: ADME, organism-based, Macaca fascicularis; settings: in vivo, read-out: Vdss
[17] = Cmax in cynomolgus monkey at 1.5 mg/kg, po administered as cassette dose and measured upto 24 hrs by LC-MS/MS analysis; assay type: ADME, organism-based, Macaca fascicularis; settings: in vivo
[18] = Cmax in Sprague-Dawley rat at 3 mg/kg, po administered as cassette dose and measured upto 24 hrs by LC-MS/MS analysis; assay type: ADME, organism-based; settings: in vivo
[19] = Half-life in cynomolgus monkey at 0.5 mg/kg, iv administered as cassette dose and measured upto 24 hrs by LC-MS/MS analysis; assay type: ADME, organism-based, Macaca fascicularis; settings: in vivo
[20] = Oral bioavailability in cynomolgus monkey at 1.5 mg/kg administered as cassette dose and measured upto 24 hrs by LC-MS/MS analysis; assay type: ADME, organism-based, Macaca fascicularis; settings: in vivo
[21] = Oral bioavailability in Sprague-Dawley rat at 3 mg/kg administered as cassette dose and measured upto 24 hrs by LC-MS/MS analysis; assay type: ADME, organism-based; settings: in vivo
[22] = Half-life in Sprague-Dawley rat at 0.43 mg/kg, iv administered as cassette dose and measured upto 24 hrs by LC-MS/MS analysis; assay type: ADME, organism-based; settings: in vivo
[23] = Hepatic blood flow in Sprague-Dawley rat at 0.43 mg/kg, iv administered as cassette dose and measured upto 24 hrs by LC-MS/MS analysis; assay type: ADME, organism-based; settings: in vivo
[24] = Oral bioavailability in cynomolgus monkey at 3 mg/kg administered as cassette dose and measured upto 24 hrs by LC-MS/MS analysis; assay type: ADME, organism-based, Macaca fascicularis; settings: in vivo
[25] = Volume of distribution at steady state in Sprague-Dawley rat at 0.43 mg/kg, iv administered as cassette dose and measured upto 24 hrs by LC-MS/MS analysis; assay type: ADME, organism-based; settings: in vivo, read-out: Vdss
[26] = Cmax in cynomolgus monkey at 3 mg/kg, po administered as cassette dose and measured upto 24 hrs by LC-MS/MS analysis; assay type: ADME, organism-based, Macaca fascicularis; settings: in vivo
[27] = AUC in cynomolgus monkey at 3 mg/kg, po administered as cassette dose and measured upto 24 hrs by LC-MS/MS analysis; assay type: ADME, organism-based, Macaca fascicularis; settings: in vivo

SMILES	IC50 [1]	IC50 [2]	IC50 (CDK6/cyclin D3)	IC50 [3]	solubility [4]	IC50 [5]	CLint scaled at 1 µM [6]	Ratio IC50 (Homo sapiens)	fraction unbound at 2 h [8]	other results
CS(=O)(=O)N1CCC(Nc2ncc(C(F)(F)F)c(-c3cnn(CC(F)(F)F)c3)n2)CC1	205 nM	1.8 nM	22 nM	11 nM	3 µg/mL (≈ 6.35 µM)	709 nM	< 8.33 mL/min/kg	110	–	–
CS(=O)(=O)N1CCC(Nc2ncc(C(F)(F)F)c(-c3cnn(-c4ccccc4F)c3)n2)CC1	–	–	31 nM	14 nM	46 µg/mL (≈ 94.9 µM)	5110 nM	< 8.33 mL/min/kg	–	–	–
CS(=O)(=O)N1CCC(Nc2ncc(C(F)(F)F)c(-c3cnn(C4CCCCC4)c3)n2)CC1	257 nM	2 nM	10 nM	3.2 nM	11 µg/mL (≈ 23.3 µM)	5050 nM	18.3 mL/min/kg	130	–	–
CS(=O)(=O)N1CCC(Nc2ncc(C(F)(F)F)c(-c3cnn(C4CCOCC4)c3)n2)CC1	407 nM	3.2 nM	–	–	–	–	–	130	–	IC50 [7]: > 10000 nM
CC(C)(O)Cn1cc(-c2nc(NC3CCN(S(=O)(=O)C4CC4)CC3)ncc2C#N)cn1	–	–	–	–	41 µg/mL (≈ 92 µM)	–	< 8.33 mL/min/kg	–	0.35	Papp A→B at 2 h, 50 µM [9]: 4.3 ×10⁻⁶ cm/s
CNCc1ccc(-n2cc(-c3nc(NC4CCN(S(C)(=O)=O)CC4)ncc3C#N)cn2)c(Cl)c1	–	–	–	–	–	–	10 mL/min/kg	–	0.33	Vd [10]: 5.7 L/kg; QH [11]: 36%; AUC at 24 h [12]: 3.5 µM·h; half-life [13]: 3.8 h; AUC at 24 h [14]: 0.923 µM·h; QH [15]: 26%; Vd [16]: 4.4 L/kg; Cmax [17]: 93 nM; Cmax [18]: 412 nM; half-life [19]: 6 h; bioavailability [20]: 20%; bioavailability [21]: 69%
CS(=O)(=O)N1CCC(Nc2ncc(Cl)c(-c3cnn(C4CCOCC4)c3)n2)CC1	1020 nM	16 nM	–	–	–	–	–	–	–	IC50 [7]: > 10000 nM
Cn1cnc(S(=O)(=O)N2CCC(Nc3ncc(C(F)(F)F)c(-c4cnn(CC(F)(F)F)c4)n3)CC2)c1	–	–	–	–	322 µg/mL (≈ 598 µM)	–	10 mL/min/kg	–	0.076	AUC at 24 h [12]: 6.95 µM·h; half-life [22]: 3.3 h; QH [15]: 4.3%; Vd [16]: 0.37 L/kg; QH [23]: 12%; Cmax [18]: 813 nM; half-life [19]: 3.2 h; bioavailability [24]: 8%; Vd [25]: 1.4 L/kg; Cmax [26]: 778 nM; Papp A→B at 2 h, 50 µM [9]: 5.4 ×10⁻⁶ cm/s; AUC at 24 h [27]: 7.59 µM·h; bioavailability [21]: 48%

— ChEMBL document CHEMBL5528049, “Discovery of (4-Pyrazolyl)-2-aminopyrimidines as Potent and Selective Inhibitors of Cyclin-Dependent Kinase 2” (J Med Chem, 2024)
